A short description of data set [1]: Difference of pharmacokinetic parameters between intravenous microdialysis and standard plasma sampling. The conditions noted are these: intravenous microdialysis minus standard plasma, mean (95% confidence interval). On the procedure: (§1) For the data analysis, the microdialysate concentrations were attributed to the midpoint of the sampling interval. The pharmacokinetic parameters and statistical analysis were performed using STATA (v. 17.0 StataCorp, College Station, TX, USA) for continuous intravenous microdialysis samples and standard plasma samples separately. […] AUC was calculated using the linear-up/log-down method. Cmax was calculated as the maximum of all the concentrations and Tmax as the time to reach Cmax. For comparison between the two sampling methods, the difference of pharmakokinetic parameters between methods is calculated including 95% confidence intervals. The Kenward–Roger approximation method was used due to small sample size, as a correction for degrees of freedom. Model assumptions were tested by visual diagnosis of residuals, fitted values, and estimates of random effects.

Data set [2] is described as follows: Pharmacokinetics from standard plasma sampling (central venous catheter), free unbound concentrations. The conditions noted are these: vancomycin 1 g iv infused over 100 min, co-administered with meropenem, eight female pigs, standard plasma samples, mean (95% confidence interval).
Text: (§2) Eight female pigs, Danish Landrace Breed, weight 78–82 kg, were included. […] Intravenous microdialysis catheters were inserted into the left subclavian vein, guided by ultrasound and using a peripheral venous introducer. On the opposite side of the throat, a central venous catheter was placed for standard plasma sampling (Figure 3). At the end of the sampling period, all pigs were euthanized by intravenous injection of pentobarbital.
After placement, the intravenous microdialysis catheters were perfused with 0.9% NaCl followed by a 20 min tissue equilibrium period. […] Dialysates were collected during an 8 h sampling period every 30 min from time 0 to 240 min and every 60 min from time 240 to 480 min, resulting in 12 dialysates per pig. Plasma samples, each containing approximately 4 mL, were collected from the central venous catheter in the middle of every dialysate sampling interval to EDTA tubes. […] After a 30 min equilibrium period, one calibration sample was collected over a 40 min interval. Collected plasma samples were stored at 5 °C for a maximum of 6 h before being centrifuged at 3000× g for 10 min. Dialysates and plasma samples were frozen at −80 °C until analysis.
The principle of this analysis is that (in competition) the free drug competes with a drug–enzyme conjugate for the antibody (File S1). […] Meropenem was quantified using ultra-high-performance liquid chromatography (UHPLC). Quantification was performed after ultrafiltration of the plasma samples using a centrifree ultrafiltration device with a nominal molecular weight limit of 30 kDa (Millipore). Some 5 µL of the filtrate was prepared for analysis.
as §1

Data set [3] can be described thus: Pharmacokinetics from continuous intravenous microdialysis sampling (subclavian vein), free unbound concentrations. The conditions noted are these: vancomycin 1 g iv infused over 100 min, co-administered with meropenem, eight female pigs, mean (95% confidence interval). On the procedure:
In the microdialysis system, complete equilibrium will not occur across the semipermeable membrane, due to the constant flow. As such, the obtained concentration in the dialysates represents a fraction of the actual concentration. This fraction is referred to as the relative recovery, and it is essential to calculate to determine the absolute concentration of an analyte. In this study, calibration using retrodialysis by drug was used. Relative recovery was calculated by the following equation:(1) Relative recovery %=100 ·1−Cdialysate/Cperfusate
(2) Cplasma=100 ·Cdialysate/Relative recovery %
All the microdialysis equipment was acquired from M Dialysis AB (Stockholm, Sweden), and consisted of 67 Intravenous Microdialysis Catheters with a membrane length of 30 mm, a 20 kD cut-off, and 107 Microdialysis pumps set at a flow rate of 1 μL/min.
as §2
After placement, the intravenous microdialysis catheters were perfused with 0.9% NaCl followed by a 20 min tissue equilibrium period. […]
A 3 µL sample volume was introduced into the UHPLC system with a C18 column and further analyzed with mass spectrometry. […]
For the data analysis, the microdialysate concentrations were attributed to the midpoint of the sampling interval. […] AUC was calculated using the linear-up/log-down method. Cmax was calculated as the maximum of all the concentrations and Tmax as the time to reach Cmax. For comparison between the two sampling methods, the difference of pharmakokinetic parameters between methods is calculated including 95% confidence intervals. […]

The structures appear in SMILES notation.

Consider `C[C@@H](O)[C@H]1C(=O)N2C(C(=O)O)=C(S[C@@H]3CN[C@H](C(=O)N(C)C)C3)[C@H](C)[C@H]12` [Meropenem, meropenem], for which the “Tmax, difference between methods” value in data set [1] (meropenem) was 5 (−8; 18) min.

For the compound `CN[C@H](CC(C)C)C(=O)N[C@H]1C(=O)N[C@@H](CC(N)=O)C(=O)N[C@H]2C(=O)N[C@H]3C(=O)N[C@H](C(=O)N[C@H](C(=O)O)c4cc(O)cc(O)c4-c4cc3ccc4O)[C@H](O)c3ccc(c(Cl)c3)Oc3cc2cc(c3O[C@@H]2O[C@H](CO)[C@@H](O)[C@H](O)[C@H]2O[C@H]2C[C@](C)(N)[C@H](O)[C@H](C)O2)Oc2ccc(cc2Cl)[C@H]1O` [Vancomycin, vancomycin], the Cmax in data set [2] (homogeneous enzyme immunoassay) is on record as 36 (24; 49) µg/mL; in data set [3] (intravenous microdialysis, 1 μL/min, UHPLC-MS/MS, recovery-corrected) it was 14 (2; 26) µg/mL. In addition, in data set [2] (homogeneous enzyme immunoassay, non-compartmental), the “AUC0–8h” value is 7014 (5779; 8249) min µg/mL. The T1/2 is 197 (124; 270) min in data set [2] and 242 (162; 322) min in data set [3] (intravenous microdialysis samples). Moreover, the Tmax is 85 (72; 98) min in data set [2] and 110 (97; 123) min in data set [3] (intravenous microdialysis samples, concentrations attributed to midpoint of sampling interval). For the same compound, the “T1/2, difference between methods” value in data set [1] (vancomycin) is on record as 45 (−55; 146) min. Further, the “Tmax, difference between methods” value in data set [1] (vancomycin) was 25 (4.3; 46) min.

(Values after publication PMC10135263 (Antibiotics, 2023).)
